Assay results taken from ChEMBL document CHEMBL5653631, “A Potent and Selective ULK1 Inhibitor Suppresses Autophagy and Sensitizes Cancer Cells to Nutrient Stress” (iScience, 2018).
Values belong to the compound of their own block, whether it stands above or below them.

Assays:
[1] = target: T1, Serine/threonine-protein kinase DCLK2 (Homo sapiens) (UniProt Q8N568); test: Inhibition of human recombinant DCAMKL2 at 500 nM in presence of ATP by radiometric assay relative to control
T1 sequence (whole entry): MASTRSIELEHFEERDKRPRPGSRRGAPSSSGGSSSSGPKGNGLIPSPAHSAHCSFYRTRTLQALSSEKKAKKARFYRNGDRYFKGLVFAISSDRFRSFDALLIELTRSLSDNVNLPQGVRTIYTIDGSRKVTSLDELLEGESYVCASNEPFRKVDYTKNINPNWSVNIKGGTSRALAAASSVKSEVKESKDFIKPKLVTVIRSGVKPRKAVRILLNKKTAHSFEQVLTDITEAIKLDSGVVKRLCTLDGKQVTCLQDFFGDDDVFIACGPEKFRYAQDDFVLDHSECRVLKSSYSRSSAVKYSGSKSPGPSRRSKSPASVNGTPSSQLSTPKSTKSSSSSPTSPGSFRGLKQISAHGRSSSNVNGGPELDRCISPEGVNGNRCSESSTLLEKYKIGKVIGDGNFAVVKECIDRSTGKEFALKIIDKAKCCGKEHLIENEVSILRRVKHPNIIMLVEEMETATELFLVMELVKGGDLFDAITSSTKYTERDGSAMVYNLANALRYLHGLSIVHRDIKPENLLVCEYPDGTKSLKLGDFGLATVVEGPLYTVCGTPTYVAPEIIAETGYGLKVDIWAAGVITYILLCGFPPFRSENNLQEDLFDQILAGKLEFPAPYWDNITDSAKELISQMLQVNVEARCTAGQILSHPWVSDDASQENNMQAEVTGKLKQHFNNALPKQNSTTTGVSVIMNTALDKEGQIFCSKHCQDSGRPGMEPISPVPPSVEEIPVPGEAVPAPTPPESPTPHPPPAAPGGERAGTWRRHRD

[2] = target: Ribosomal protein S6 kinase alpha-2 (Homo sapiens) (UniProt Q15349); test: Inhibition of human recombinant RSK3 at 15 nM in presence of ATP by radiometric assay relative to control
Sequence of Ribosomal protein S6 kinase alpha-2 (Homo sapiens) (Q15349 whole entry): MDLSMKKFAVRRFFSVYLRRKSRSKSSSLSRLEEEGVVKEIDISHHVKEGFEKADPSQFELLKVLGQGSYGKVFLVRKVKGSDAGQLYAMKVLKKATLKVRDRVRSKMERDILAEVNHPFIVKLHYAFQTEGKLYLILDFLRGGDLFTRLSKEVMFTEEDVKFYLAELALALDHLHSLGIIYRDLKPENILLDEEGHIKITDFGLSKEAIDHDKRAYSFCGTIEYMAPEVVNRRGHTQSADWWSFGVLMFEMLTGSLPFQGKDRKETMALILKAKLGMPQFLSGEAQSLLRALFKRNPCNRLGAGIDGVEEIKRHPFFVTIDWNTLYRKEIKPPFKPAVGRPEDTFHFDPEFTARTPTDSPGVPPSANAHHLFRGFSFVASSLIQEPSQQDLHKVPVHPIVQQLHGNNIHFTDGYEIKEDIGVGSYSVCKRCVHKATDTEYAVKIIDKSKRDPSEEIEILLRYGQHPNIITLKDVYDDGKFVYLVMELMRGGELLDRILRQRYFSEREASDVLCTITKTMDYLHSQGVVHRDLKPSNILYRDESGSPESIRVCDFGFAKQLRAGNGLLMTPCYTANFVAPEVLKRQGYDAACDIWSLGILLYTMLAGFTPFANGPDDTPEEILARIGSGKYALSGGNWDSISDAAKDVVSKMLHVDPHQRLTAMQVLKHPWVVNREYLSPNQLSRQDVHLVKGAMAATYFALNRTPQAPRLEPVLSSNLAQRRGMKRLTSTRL

[3] = target: Cyclin-dependent kinase 6 (Homo sapiens) (UniProt Q00534); test: Inhibition of human recombinant CDK6 at 15 nM related to control ULK1
Sequence of Cyclin-dependent kinase 6 (Homo sapiens) (Q00534 whole entry): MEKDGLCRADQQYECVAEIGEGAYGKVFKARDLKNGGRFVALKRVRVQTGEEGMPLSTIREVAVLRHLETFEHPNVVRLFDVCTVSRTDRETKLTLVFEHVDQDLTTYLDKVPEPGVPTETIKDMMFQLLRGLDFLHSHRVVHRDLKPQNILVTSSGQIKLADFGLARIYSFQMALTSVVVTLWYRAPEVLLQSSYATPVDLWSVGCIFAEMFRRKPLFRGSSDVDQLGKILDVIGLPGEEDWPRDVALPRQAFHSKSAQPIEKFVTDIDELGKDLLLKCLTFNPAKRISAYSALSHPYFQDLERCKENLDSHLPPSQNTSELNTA

[4] = target: TRAF2 and NCK-interacting protein kinase (Homo sapiens) (UniProt Q9UKE5); test: Inhibition of human recombinant TNIK at 15 nM in presence of ATP by radiometric assay relative to control
Sequence of TRAF2 and NCK-interacting protein kinase (Homo sapiens) (Q9UKE5 whole entry, looked up): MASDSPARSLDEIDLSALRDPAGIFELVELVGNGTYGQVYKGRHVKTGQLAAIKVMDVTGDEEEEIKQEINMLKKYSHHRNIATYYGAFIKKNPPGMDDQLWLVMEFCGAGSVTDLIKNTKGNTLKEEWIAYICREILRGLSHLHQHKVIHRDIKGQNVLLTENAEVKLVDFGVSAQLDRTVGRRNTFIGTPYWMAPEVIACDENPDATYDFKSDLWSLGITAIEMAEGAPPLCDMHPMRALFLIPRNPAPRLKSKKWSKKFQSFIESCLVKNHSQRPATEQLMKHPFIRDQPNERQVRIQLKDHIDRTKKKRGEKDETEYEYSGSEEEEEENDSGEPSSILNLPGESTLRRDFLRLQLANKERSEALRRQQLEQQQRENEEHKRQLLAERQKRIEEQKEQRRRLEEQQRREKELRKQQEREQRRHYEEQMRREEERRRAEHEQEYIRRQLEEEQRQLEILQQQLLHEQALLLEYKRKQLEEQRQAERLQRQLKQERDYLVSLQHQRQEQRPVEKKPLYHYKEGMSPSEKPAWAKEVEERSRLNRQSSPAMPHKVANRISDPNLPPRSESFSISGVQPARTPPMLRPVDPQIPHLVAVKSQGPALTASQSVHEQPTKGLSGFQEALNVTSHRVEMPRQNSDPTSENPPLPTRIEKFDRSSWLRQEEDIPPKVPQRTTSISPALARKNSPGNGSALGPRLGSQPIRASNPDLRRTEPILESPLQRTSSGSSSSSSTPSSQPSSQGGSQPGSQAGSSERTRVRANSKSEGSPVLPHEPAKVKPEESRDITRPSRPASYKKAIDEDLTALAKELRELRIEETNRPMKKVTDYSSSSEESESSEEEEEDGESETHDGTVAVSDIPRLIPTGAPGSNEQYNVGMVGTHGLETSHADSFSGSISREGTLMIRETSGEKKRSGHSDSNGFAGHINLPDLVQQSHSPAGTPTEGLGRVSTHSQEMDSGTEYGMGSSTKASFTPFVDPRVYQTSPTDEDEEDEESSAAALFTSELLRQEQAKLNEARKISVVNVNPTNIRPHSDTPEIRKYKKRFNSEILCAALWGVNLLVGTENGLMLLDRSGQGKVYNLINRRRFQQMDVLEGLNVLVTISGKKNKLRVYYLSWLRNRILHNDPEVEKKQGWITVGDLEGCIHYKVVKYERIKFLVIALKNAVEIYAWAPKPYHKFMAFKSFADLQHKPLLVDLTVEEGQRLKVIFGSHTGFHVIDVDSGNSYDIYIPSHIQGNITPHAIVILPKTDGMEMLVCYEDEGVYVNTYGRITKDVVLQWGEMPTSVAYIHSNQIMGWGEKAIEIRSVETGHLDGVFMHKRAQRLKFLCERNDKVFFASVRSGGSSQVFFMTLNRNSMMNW

[5] = target: T2, Ephrin type-B receptor 2 (Homo sapiens) (UniProt P29323); test: Inhibition of human recombinant EphB2 at 15 nM related to control ULK1
T2 sequence (whole entry): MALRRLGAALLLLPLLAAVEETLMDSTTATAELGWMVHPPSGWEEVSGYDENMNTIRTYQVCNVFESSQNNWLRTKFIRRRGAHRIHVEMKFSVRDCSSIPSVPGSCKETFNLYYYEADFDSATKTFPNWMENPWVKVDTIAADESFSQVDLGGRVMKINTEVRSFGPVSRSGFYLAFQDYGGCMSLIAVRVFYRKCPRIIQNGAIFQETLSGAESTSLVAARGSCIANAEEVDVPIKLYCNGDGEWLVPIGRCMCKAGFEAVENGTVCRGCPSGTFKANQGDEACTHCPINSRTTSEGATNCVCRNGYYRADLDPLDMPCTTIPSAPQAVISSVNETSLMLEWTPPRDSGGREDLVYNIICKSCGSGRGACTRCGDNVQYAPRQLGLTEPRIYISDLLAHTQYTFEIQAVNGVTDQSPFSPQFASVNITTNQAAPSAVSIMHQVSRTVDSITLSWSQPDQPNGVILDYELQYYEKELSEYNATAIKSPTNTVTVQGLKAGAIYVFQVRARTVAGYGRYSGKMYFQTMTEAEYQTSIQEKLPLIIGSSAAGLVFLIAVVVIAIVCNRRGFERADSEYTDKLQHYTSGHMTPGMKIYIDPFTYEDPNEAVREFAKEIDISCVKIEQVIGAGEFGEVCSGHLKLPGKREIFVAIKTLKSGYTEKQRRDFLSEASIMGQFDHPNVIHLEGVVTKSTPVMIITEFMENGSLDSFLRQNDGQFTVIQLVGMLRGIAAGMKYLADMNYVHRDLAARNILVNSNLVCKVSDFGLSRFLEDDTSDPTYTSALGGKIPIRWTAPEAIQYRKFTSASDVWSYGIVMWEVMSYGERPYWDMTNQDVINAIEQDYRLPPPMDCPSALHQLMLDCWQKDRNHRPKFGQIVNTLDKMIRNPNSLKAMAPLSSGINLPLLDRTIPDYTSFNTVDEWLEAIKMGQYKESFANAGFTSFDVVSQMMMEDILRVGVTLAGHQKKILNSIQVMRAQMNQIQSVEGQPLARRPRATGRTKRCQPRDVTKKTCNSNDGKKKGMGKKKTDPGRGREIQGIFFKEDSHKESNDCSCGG

[6] = target: Dual specificity tyrosine-phosphorylation-regulated kinase 1A (Homo sapiens) (UniProt Q13627); test: Inhibition of human recombinant DYRK1A at 40 nM related to control ULK1
[7] = target: T3, Mitogen-activated protein kinase kinase kinase kinase 2 (Homo sapiens) (UniProt Q12851); test: Inhibition of human recombinant GCK at 40 nM in presence of ATP by radiometric assay relative to control
T3 sequence (whole entry): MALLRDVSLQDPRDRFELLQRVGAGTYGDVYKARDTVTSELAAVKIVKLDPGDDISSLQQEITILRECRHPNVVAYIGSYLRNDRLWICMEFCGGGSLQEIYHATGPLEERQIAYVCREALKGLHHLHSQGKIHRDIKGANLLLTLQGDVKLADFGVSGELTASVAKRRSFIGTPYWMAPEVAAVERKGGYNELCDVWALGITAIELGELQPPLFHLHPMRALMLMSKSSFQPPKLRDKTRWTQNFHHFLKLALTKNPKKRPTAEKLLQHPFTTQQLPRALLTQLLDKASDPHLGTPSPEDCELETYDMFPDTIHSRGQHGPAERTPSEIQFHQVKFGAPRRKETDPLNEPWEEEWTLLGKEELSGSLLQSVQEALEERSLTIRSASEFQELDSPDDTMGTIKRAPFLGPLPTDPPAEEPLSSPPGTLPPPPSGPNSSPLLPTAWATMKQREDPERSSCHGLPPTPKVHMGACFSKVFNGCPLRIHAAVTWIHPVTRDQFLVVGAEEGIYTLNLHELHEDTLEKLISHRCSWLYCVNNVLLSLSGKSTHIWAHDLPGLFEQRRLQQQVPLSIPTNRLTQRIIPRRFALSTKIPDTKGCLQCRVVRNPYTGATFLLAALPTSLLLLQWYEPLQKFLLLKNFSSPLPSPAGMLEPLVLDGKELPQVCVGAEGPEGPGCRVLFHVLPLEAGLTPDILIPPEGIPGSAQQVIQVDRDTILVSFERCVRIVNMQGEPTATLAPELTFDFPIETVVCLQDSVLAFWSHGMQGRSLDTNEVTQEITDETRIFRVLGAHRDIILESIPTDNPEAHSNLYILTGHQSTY

inhibition [1]: 0%
SMILES: CNC(=O)c1ccccc1Oc1nc(Nc2cc(OC)c(OC)c(OC)c2)ncc1Br

inhibition [2]: 3% | fold change (FC) [3]: 0.09 | inhibition [4]: 5% | fold change (FC) [5]: 0.08
SMILES: CC(C)[C@H](NC(=O)c1cc(-c2cnn3cc(-c4ccc(OCCN5CCCCC5)cc4)cnc23)cs1)C(F)(F)F

fold change (FC) [6]: 0.59 | inhibition [7]: 0%
SMILES: O=C(N[C@@H](C1CC1)C(F)(F)F)c1cc(-c2cnn3cc(-c4ccc(F)cc4)cnc23)cs1
